Results published in patent US20160166604A1, “Thiol-Sensitive Positive Inotropes” (priority 2005, published 2016).
Entries after “also recorded” stand apart in the source; their conditions may differ.

Assays:
[1] = Kinetics of AS decomposition in Tyrode solution; assay type: physicochemical; conditions: after ~1000 sec (16 min); Tyrode solution pH 7.4, room temperature; identical for 0.1-1 mM AS
Description: FIG. IA-FIG. 1D show the effects of HNO donor AS on sarcomere shortening in isolated mouse ventricular myocytes.
At physiological pH, AS decomposes to produce HNO and nitrite. Whether nitrite could play a role in the observed responses was therefore tested. […] Identical results were obtained for 0.1-1 mM AS. Thus, at time of functional analysis, 25-250 μM NO2^− is expected; however, such levels (and higher or lower doses) had no effect on sarcomere shortening (FIG. 1H).

mice cardiomyocytes = assay: Whole Ca2+ transients in isolated mouse myocytes (fluo-4, confocal line scan); assay type: cell-based
Description: Wild type 2-4 month old mice were anesthetized with intraperitoneal pentobarbital sodium (100 mg/kg/ip). Hearts were perfused as previously described. Mongillo, M. et al., Circ. Res., 98, 226-234 (2006). To assess for sarcomere shortening, cells were imaged using field stimulation (Warner instruments) in an inverted fluorescence microscope (Diaphot 200; Nikon, Inc). Sarcomere length was measured by real-time Fourier transform (IonOptix MyoCam, CCCCD100M) and cell twitch amplitude is expressed as a percentage of resting cell length. Twitch kinetics was quantified by measuring the time to peak shortening and the time from peak shortening to 50% relaxation. For whole calcium transient measurements, myocytes were loaded with the Ca^2+ indicator fluo-4/AM (Molecular Probes, 20 μM for 30 min) and Ca^2+ transients were measured under field-stimulation at 0.5 Hz in perfusion solution by confocal laser scanning microscope (LSM510, Carl Zeiss). Digital image analysis used customer-designed programs coded in Interactive Data Language (IDL).
(§1) To further explore potential HNO targets, calcium cycling in adult mouse and rat cardiac myocytes was examined. Cells were first exposed to AS for 5-10 min, then washed and loaded with Indo-1 or Fluo-4 for 20 min. Pretreatment with AS was carried out because the drug reacted with the Ca^2+ indicators (both Fluo-4 and Indo-1) and altered their fluorescent properties. In mice, the calcium transient amplitude assessed by confocal line scan imaging increased by ˜40% over baseline with 0.5 mM AS, (n=27, p<0.001) (FIG. 3A-FIG. 3C), time to peak transient was prolonged (FIG. 3D) while the decay time shortened (FIG. 3E). Basal fluorescence (F0) was unchanged by AS pretreatment (FIG. 3F). Similar results were obtained in rat myocytes (using Indo-1) for Ca^2+ transient amplitude (FIG. 3G and FIG. 3H) and decay time (FIG. 3I). The increase in amplitude was not accompanied by an increase in diastolic Ca^2+ level (ratio 405/485=0.239±0.006 (Con) vs. 0.243±0.008 (AS); n.s.; see also FIG. 3A, FIG. 3F and FIG. 3G). Rapid sustained caffeine (10 mM) application abruptly releases all SR Ca^2+ and subsequent [Ca^2+]i decline is mediated mainly via Na/Ca exchange.

[2] = tested on: isolated rat ventricular myocytes; assay: Whole Ca2+ transients and SR Ca2+ load in isolated rat ventricular myocytes (Indo-1, caffeine); assay type: cell-based
Description: Isolation of ventricular myocytes from rats was carried out as previously described. Bassani, R A. et al., J. Mol. Cell Cardiol., 26, 1335-1347 (1994). The enzyme used for tissue dissociation was Liberase Blendzyme 3 or 4 (13-20 Wuensch Units/Heart) sometimes supplemented with 5-10 Units of Dispase II (both Roche Diagnostics, Indianapolis, Ind.). When the heart became flaccid, left ventricular tissue was cut into small pieces for further incubation (5 to 10 min at 37° C.) in enzyme solution. The tissue was dispersed, filtered, and suspensions rinsed several times before used for experiments. Isolated rat ventricular myocytes were then plated onto superfusion chambers, with the glass bottoms treated with natural mouse laminin (Invitrogen, Carlsbad, Calif.). The standard Tyrode's solution used in all experiments contained (in mM): NaCl 140, KCl 4, MgCl2 1, glucose 10, HEPES 5, and CaCl2 1, pH 7.4. Myocytes were loaded with 6 μM Indo-1/AM for 25 min and subsequently perfused for at least 30 min to allow for deesterfication of the dye. Some cells were pretreated with 0.5 mM AS (in some Caffeine experiments with 1 mM), washed and then loaded with Indo-1/AM. Concentration of the AS stock solution was verified by absorbance at 250 nm. All experiments were done at room temperature (23-25° C.) using field stimulation. Ca^2+-transients were recorded with Clampex 8.0 and data analyzed with Clampfit.
as §1

isolated mouse myocytes = assay: SR Ca2+ stores by rapid caffeine infusion in mouse myocytes; assay type: cell-based; conditions: 1 mM AS; caffeine alone 223±34; n=8
Description: Nitroxyl (HNO) confers positive inotropy in vivo. Here, it was determined whether HNO action stems from a direct influence on sarcoplasmic reticulum (SR) Ca^2+ cycling, involving enhanced Ca^2+ release from ryanodine receptors (RyR2). Myocytes were isolated from ST mice, suspended in Tyrode's solution (1 mM Ca^2+) and field stimulated (0.5 Hz, 25° C.). Sarcomere shortening (SS) was assessed by real-time image analysis, Ca^2+ transients from Indo-1 fluorescence. RyR2 activity was determined by optical imaging of Ca^2+ release from single Ca^2+ release units. The HNO donor Angeli's Salt (AS) induced dose-dependent inotropy (SS: 73±31% at 0.5 mM; 131±31% at 1 mM; all n=15, p<0.05 vs. base; <0.1 mM: no effect). In contrast, the NO donor DEA/NO reduced SS by 55-65% at 5-50 μM (both p<0.05 vs. base), with no effect at higher doses. […] However, co-infusion with the thiol-donating compound N-acetyl-L-cysteine (NAC, 3 mM) abolished AS inotropy.

- nitrite generation on AS decomposition [1]: 25%
SMILES: [Na+].[Na+].[O-][N+]([O-])=NO [AS, Angeli's salt]
- Ca2+ transient decay time (mice cardiomyocytes; 0.5 mM AS pretreatment): shortened
- time to peak Ca2+ transient (mice cardiomyocytes; 0.5 mM AS pretreatment): prolonged
- increase of calcium transient amplitude over baseline (mice cardiomyocytes; 0.5 mM AS pretreatment, n=27): ~40%
- basal fluorescence (F0) (mice cardiomyocytes; AS pretreatment): unchanged
- Ca2+ transients (mice cardiomyocytes; AS, isolated murine cardiomyocytes (Example 7)): without changes
- fractional SR Ca2+ release ([2]; AS pretreated): enhanced
- relative contribution of NCX to Ca2+ removal ([2]; AS pretreated cells, Con 12.4%): 8.7%
- relative contribution of the SR to Ca2+ removal ([2]; AS pretreated cells, Con 87.6%): 91.3%
- diastolic Ca2+ level (ratio 405/485) ([2]; AS pretreated rat myocytes, Con 0.239±0.006, n.s.): 0.243±0.008
- SR Ca2+ content (total SR load, caffeine) ([2]; AS pretreated, caffeine 10 mM): unchanged; also recorded: did not alter
- τ of caffeine-induced Ca2+ transient decline (Na/Ca exchange function) ([2]; caffeine 10 mM, printed 2.0±0.4 vs. 2.2±0.3, order Con vs. AS assumed): 2.2 ± 0.3 s
- SR Ca2+ stores (% [Ca2+]i on caffeine) (isolated mouse myocytes): 138±17%
